*1 amine or outer side, *2 acyl side, *3 side chain or, on linkers, in order; H or OH if unused. Primed or numbered codes have the meaning given here. Where no end group is shown, it is not given here. Side-chain parts run from the residue outwards. [ ]: non-standard residue; d: D form. The star is where a group is joined. C18 diacid = O=C(O)CCCCCCCCCCCCCCCCC(=O)*; C16 diacid = O=C(O)CCCCCCCCCCCCCCC(=O)*; γGlu = O=C(O)[C@H](CCC(=O)[*:2])N[*:1]; Stearoyl = CCCCCCCCCCCCCCCCCC(=O)*; Palmitoyl = CCCCCCCCCCCCCCCC(=O)*; PEG2′ = not defined here; Aib = CC(C)(N)C(=O)O
Key:
[1] = system: CCl4-induced hepatic fibrosis mice; experiment: CCl4-induced hepatic fibrosis in mice; format: in vivo, C57 mice; details: 500 μg/kg subcutaneous once every two days, 6 weeks
Description: 6-8-week-old C57 mice with body weight of 20-25 g at SPF level were provided by Guangdong Medical Laboratory Animal Center and tested by SPF level laboratory in Laboratory Animal Center of Guangdong Pharmaceutical University. C57 mice were divided into control group, hepatic fibrosis model group and treatment group, 8 mice for each group. A mouse was subject to intraperitoneal injection with 20% CCl4 (2 mL/kg, diluted with olive oil at ratio of 1:4) twice a week for continuous 6 weeks to form a stable hepatic fibrosis animal model. For the treatment group, one of subcutaneous injection compounds 2, 6 and 22 with 500 μg/kg of body weight was used respectively once every two days for continuous 6 weeks. Olive oil with same volume and same frequency was administered for the control group and stopped until the end of 6-week experiment. After the end of the experiment, the mice were subject to anesthesia to collect serum and liver specimens. The liver was fixed with 10% formalin and embedded with paraffin.

[2] = system: high fat diet-induced hyperlipidemic mice; experiment: High fat diet-induced NAFLD and hyperlipemia in mice; format: in vivo, C57 mice; details: 500 μg/kg subcutaneous once every two days, 12 weeks
Description: 6-8-week-old C57 mice with body weight of 20-25 g at SPF level were provided by Guangdong Medical Laboratory Animal Center and tested by SPF level laboratory in Laboratory Animal Center of Guangdong Pharmaceutical University. C57 mice were divided into control group, hepatic fibrosis model group and treatment group, 8 mice for each group. The mice were fed with high fat diet (HFD) for 12 weeks. For the treatment group, subcutaneous injection compounds 2 and 6 with 500 μg/kg of body weight were used once every two days for continuous 12 weeks. PBS with same volume and same frequency was administered for the control group. After the end of the experiment, the mice were subject to anesthesia to collect serum and liver specimens.

[3] = system: db/db diabetic obese mice; format: in vivo; details: 10 μg/mouse subcutaneous once every two days, 18 days
Description: 12-week-old db/db diabetic obese mice were randomly grouped into 3 groups (12-hour fasting before grouping), 6 mice in each group. Mice in each group were injected subcutaneously at a dose of 10 μg/mouse, and mice in the blank group were injected subcutaneously with PBS. The volume for each group was 0.25 ml/mouse once every two days (at 48-hour interval) for 18 days. At the end of the experiment, blood was taken from the orbital venous plexus of each mouse to measure glycosylated hemoglobin (HbAlc), insulin (INS), triglyceride (TG) and total cholesterol (TC) levels in the serum of the mouse. The liver, pancreas, heart, lungs and spleen were taken for HE pathological staining at the same time. GraphPad Prismversion6 software was used for statistical analysis.

[4] = system: Hepatic stellate cell strain LX-2; experiment: In vitro inhibition of hepatic fibrosis: expression of LX-2 cell activation marker α-SMA (Western Blot, α-SMA/β-actin); format: cell-based, human; details: LX-2 cells; for Relative expression of α-SMA (α-SMA/β-actin, %): 48 hours, negative control = 100%; for Effect on expression of α-SMA (in words): 1 μM and 5 μM
Description: Hepatic stellate cell strain LX-2 was selected to study and observe the effect of different doses of test substances on the expression of LX-2 cell activation marker […]. Hepatic stellate cell LX-2 was laid on 35 mm cell culture plate, cultured with DMEM (high glucose)+10% FBS+1% double-antibody culture medium (Thermo Fisher), placed overnight when the cells grew to 70% convergence at 37° C. and under the condition of 5% CO2, and treated with the above compounds 1-37 (dissolved in PBS) for 48 hours the next day morning to extract cell protein, carry out Western Blot, and take β-actin as internal reference and analyze the expression quantities of α-SMA and β-actin by a gray level of Image J 1.50i. PBS with the same volume as that in experimental group was added in negative control. […] The integrating gray level of α-SMA/β-actin in the negative control group was 100% to analyze the in vitro inhibition activity of hepatic fibrosis of tested polypeptide.

Substance: His-(D-Ser)-Gln-Gly-Thr-Phe-Thr-Ser-Asp-Tyr-Ser-Lys-Tyr-Leu-Asp-Lys(PEG2-PEG2-γGlu-CO(CH2)14CH3)-Arg-Arg-Ala-Gln-Asp-Phe-Val-Gln-Trp-Leu-Met-Asn-Thr-Gly-Gly-Pro-Ser-Ser-Gly-Ala-Pro-Pro-Pro-Ser-NH2 (H[dS]QGTFTSDYSKYLDK([PEG2′-PEG2′-γGlu-Palmitoyl])RRAQDFVQWLMNTGGPSSGAPPPS-NH2) [Compound 6]
- ALT level of serum [1]: obviously reduce
- CCl4-induced liver injury and fibrosis stage (HE, Sirius Red) [1]: obviously improved
- Fatty liver complicated by hepatic fibrosis (Sirius red) [2]: effectively inhibit fatty liver complicated by hepatic fibrosis
- HFD-induced increase of body weight [2]: effectively inhibit
- Hepatic triglyceride (TG) content [2]: effectively reduce
- Liver lipid deposition (Oil Red O) [2]: effectively reduce
- Liver lipoid degeneration and non-alcoholic steatohepatitis (liver tissue biopsy) [2]: inhibit liver lipoid degeneration and non-alcoholic steatohepatitis
- Treatment effect on liver lipid deposition and hepatic TG compared with Liraglutide [2]: obviously better than Liraglutide
- Control of body weight, comparison between treatments ([2]; compared with liraglutide): most obviously
- Atrophy lesions of pancreatic islets (HE staining) [3]: significantly improve
- Inhibition of liver lipoid vacuolar degeneration and lipid inflammation, comparison between compounds [3]: better inhibition effect
- Liver lipoid vacuolar degeneration and lipid inflammation (HE staining) [3]: significantly inhibit
- Total cholesterol (TC) level in serum [3]: obviously inhibit
- Triglyceride (TG) level in serum [3]: obviously inhibit
- Glycosylated hemoglobin (HbAlc) level in serum ([3]; vs blank group): significantly reduced
- Insulin (INS) level in serum ([3]; vs blank group): up-regulated
- Inhibition of LX-2 cell activation marker α-SMA (in words, from Table 2) [4]: obviously reduce
- Relative expression of α-SMA (α-SMA/β-actin, %) ([4]; 1 μM): 41.19%

Substance: His-(D-Ser)-Gln-Gly-Thr-Phe-Thr-Ser-Asp-Tyr-Ser-Lys-Tyr-Leu-Asp-Ser-Lys(PEG2-PEG2-γGlu-CO(CH2)16CH3)-Ala-Ala-His-Asp-Phe-Val-Glu-Trp-Leu-Leu-Asn-Gly-Gly-Pro-Ser-Ser-Gly-Ala-Pro-Pro-Pro-Ser-NH2 (H[dS]QGTFTSDYSKYLDSK([PEG2′-PEG2′-γGlu-Stearoyl])AAHDFVEWLLNGGPSSGAPPPS-NH2) [Compound 22]
- ALT level of serum [1]: obviously reduce
- CCl4-induced liver injury and fibrosis stage (HE, Sirius Red) [1]: obviously improved
- Relative expression of α-SMA (α-SMA/β-actin, %) ([4]; 1 μM): 90.56%

Substance: His-Aib-Gln-Gly-Thr-Phe-Thr-Ser-Asp-Lys(PEG2-PEG2-γGlu-CO(CH2)14CH3)-Ser-Lys-Tyr-Leu-Asp-Glu-Arg-Arg-Ala-Gln-Asp-Phe-Val-Gln-Trp-Leu-Leu-Asp-Gly-Gly-Pro-Ser-Ser-Gly-Ala-Pro-Pro-Pro-Ser-NH2 (H[Aib]QGTFTSDK([PEG2′-PEG2′-γGlu-Palmitoyl])SKYLDERRAQDFVQWLLDGGPSSGAPPPS-NH2) [Compound 16]
- Inhibition of LX-2 cell activation marker α-SMA (in words, from Table 2) [4]: obviously reduce
- Effect on expression of α-SMA (in words) ([4]; 0.1 μM): reduce the expression of α-SMA under all concentrations
- Relative expression of α-SMA (α-SMA/β-actin, %) ([4]; 0.1 μM): 65.32%
- Relative expression of α-SMA (α-SMA/β-actin, %) ([4]; 1 μM): 48.88%
- Relative expression of α-SMA (α-SMA/β-actin, %) ([4]; 5 μM): 40.35%

Substance: His-Aib-Gln-Gly-Thr-Phe-Thr-Ser-Asp-Lys(PEG2-PEG2-γGlu-CO(CH2)14CO2H)-Ser-Lys-Tyr-Leu-Asp-Aib-Arg-Arg-Ala-Gln-Asp-Phe-Val-Gln-Trp-Leu-Leu-Asp-Gly-Gly-Pro-Ser-Ser-Gly-Ala-Pro-Pro-Pro-Ser-NH2 (H[Aib]QGTFTSDK([PEG2′-PEG2′-γGlu-C16 diacid])SKYLD[Aib]RRAQDFVQWLLDGGPSSGAPPPS-NH2) [Compound 11]
- Relative expression of α-SMA (α-SMA/β-actin, %) ([4]; 1 μM): 96.78%

Substance: His-Aib-Gln-Gly-Thr-Phe-Thr-Ser-Asp-Lys(PEG2-PEG2-γGlu-CO(CH2)14CO2H)-Ser-Lys-Tyr-Leu-Asp-Glu-Arg-Arg-Ala-Gln-Asp-Phe-Val-Gln-Trp-Leu-Leu-Asp-Gly-Gly-Pro-Ser-Ser-Gly-Ala-Pro-Pro-Pro-Ser-NH2 (H[Aib]QGTFTSDK([PEG2′-PEG2′-γGlu-C16 diacid])SKYLDERRAQDFVQWLLDGGPSSGAPPPS-NH2) [Compound 13]
- Relative expression of α-SMA (α-SMA/β-actin, %) ([4]; 1 μM): 97.93%

Substance: His-Aib-Gln-Gly-Thr-Phe-Thr-Ser-Asp-Lys(PEG2-PEG2-γGlu-CO(CH2)16CH3)-Ser-Lys-Tyr-Leu-Asp-Aib-Arg-Arg-Ala-Gln-Asp-Phe-Val-Gln-Trp-Leu-Leu-Asp-Gly-Gly-Pro-Ser-Ser-Gly-Ala-Pro-Pro-Pro-Ser-NH2 (H[Aib]QGTFTSDK([PEG2′-PEG2′-γGlu-Stearoyl])SKYLD[Aib]RRAQDFVQWLLDGGPSSGAPPPS-NH2) [Compound 12]
- Relative expression of α-SMA (α-SMA/β-actin, %) ([4]; 1 μM): 72.99%

Substance: His-Aib-Gln-Gly-Thr-Phe-Thr-Ser-Asp-Lys(PEG2-PEG2-γGlu-CO(CH2)16CH3)-Ser-Lys-Tyr-Leu-Asp-Glu-Arg-Arg-Ala-Gln-Asp-Phe-Val-Gln-Trp-Leu-Leu-Asp-Gly-Gly-Pro-Ser-Ser-Gly-Ala-Pro-Pro-Pro-Ser-NH2 (H[Aib]QGTFTSDK([PEG2′-PEG2′-γGlu-Stearoyl])SKYLDERRAQDFVQWLLDGGPSSGAPPPS-NH2) [Compound 14]
- Relative expression of α-SMA (α-SMA/β-actin, %) ([4]; 1 μM): 92.80%

Substance: His-Aib-Gln-Gly-Thr-Phe-Thr-Ser-Asp-Lys(PEG2-PEG2-γGlu-CO(CH2)16CO2H)-Ser-Lys-Tyr-Leu-Asp-Aib-Arg-Arg-Ala-Gln-Asp-Phe-Val-Gln-Trp-Leu-Leu-Asp-Gly-Gly-Pro-Ser-Ser-Gly-Ala-Pro-Pro-Pro-Ser-NH2 (H[Aib]QGTFTSDK([PEG2′-PEG2′-γGlu-C18 diacid])SKYLD[Aib]RRAQDFVQWLLDGGPSSGAPPPS-NH2) [Compound 19]
- Inhibition of LX-2 cell activation marker α-SMA (in words, from Table 2) [4]: obviously reduce
- Effect on expression of α-SMA (in words) ([4]; 0.1 μM): reduce the expression of α-SMA under all concentrations
- Relative expression of α-SMA (α-SMA/β-actin, %) ([4]; 0.1 μM): 71.48%
- Relative expression of α-SMA (α-SMA/β-actin, %) ([4]; 1 μM): 43.46%
- Relative expression of α-SMA (α-SMA/β-actin, %) ([4]; 5 μM): 39.75%

Substance: His-Aib-Gln-Gly-Thr-Phe-Thr-Ser-Asp-Lys(PEG2-PEG2-γGlu-CO(CH2)16CO2H)-Ser-Lys-Tyr-Leu-Asp-Glu-Arg-Arg-Ala-Gln-Asp-Phe-Val-Gln-Trp-Leu-Leu-Asp-Gly-Gly-Pro-Ser-Ser-Gly-Ala-Pro-Pro-Pro-Ser-NH2 (H[Aib]QGTFTSDK([PEG2′-PEG2′-γGlu-C18 diacid])SKYLDERRAQDFVQWLLDGGPSSGAPPPS-NH2) [Compound 15]
- Relative expression of α-SMA (α-SMA/β-actin, %) ([4]; 1 μM): 77.29%
